Laboratory results: patent publication US7138361B2, “Herbicidal heterocycles” (E. I. du Pont de Nemours and Company, priority 2000, dated 2006)

Columns and labels:
Type in all cases: in vivo
[1] = test system: barnyardgrass (Echinochloa crus-galli); assay: Test B preemergence
Outline: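 Ratings on a 0 to 100 visual scale (100 complete control) compare treated plants with controls 13 to 15 days after application. Treatments were pre- or postemergence sprays of compound in non-phytotoxic solvent with surfactant.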

Nightshade [2] = assay: Test C preemergence; conditions: Rate 500 g/ha, visual evaluation after 12 to 14 days
[3] = test system: velvetleaf (Abutilon theophrasti); assay: Test C preemergence; conditions: for Plant response rating (0 to 100), Velvetleaf: Rate 500 g/ha, visual evaluation after 12 to 14 days
Outline: (§1)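 Seeds are planted and treated before emergence; for the postemergence test, plants at 1- to 4-leaf stage (2–18 cm) receive the same formulation, a solvent blend containing surfactant. Plants stay in the greenhouse 12–14 days, then response is scored visually from 0 (none) to 100 (complete control).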

[4] = test system: morningglory (Ipomoea hederacea); assay: Test C preemergence
Outline: as §1

soybean (Glycine max) = assay: Test C preemergence; conditions: for Plant response rating (0 to 100), Soybean: Rate 500 g/ha, visual evaluation after 12 to 14 days
Outline: as §1

[5] = test system: giant foxtail (Setaria faberii); assay: Test C preemergence; conditions: for Plant response rating (0 to 100), Foxtail, Giant: Rate 500 g/ha, visual evaluation after 12 to 14 days
Outline: as §1

corn (Zea mays) = assay: Test C preemergence; conditions: for Plant response rating (0 to 100), Corn: Rate 500 g/ha, visual evaluation after 12 to 14 days
Outline: as §1

[6] = test system: johnsongrass (Sorghum halepense); assay: Test C preemergence; conditions: for Plant response rating (0 to 100), Johnsongrass: Rate 500 g/ha, visual evaluation after 12 to 14 days
Outline: as §1

kochia (Kochia scoparia) = assay: Test C preemergence; conditions: for Plant response rating (0 to 100), Kochia: Rate 500 g/ha, visual evaluation after 12 to 14 days
Outline: as §1

[7] = test system: lambsquarters (Chenopodium album); assay: Test C preemergence; conditions: for Plant response rating (0 to 100), Lambsquarters: Rate 500 g/ha, visual evaluation after 12 to 14 days
Outline: as §1

[8] = test system: yellow nutsedge (Cyperus esculentus); assay: Test C preemergence; conditions: for Plant response rating (0 to 100), Nutsedge: Rate 500 g/ha, visual evaluation after 12 to 14 days
Outline: as §1

[9] = test system: pigweed (Amaranthus retroflexus); assay: Test C preemergence; conditions: for Plant response rating (0 to 100), Pigweed: Rate 500 g/ha, visual evaluation after 12 to 14 days
Outline: as §1

[10] = test system: woolly cupgrass (Eriochloa villosa); assay: Test C preemergence; conditions: for Plant response rating (0 to 100), Cupgrass, Woolly: Rate 500 g/ha, visual evaluation after 12 to 14 days
Outline: as §1

[11] = test system: cocklebur (Xanthium strumarium); assay: Test C preemergence; conditions: for Plant response rating (0 to 100), Cocklebur: Rate 500 g/ha, visual evaluation after 12 to 14 days
Outline: as §1

[12] = test system: bermudagrass (Cynodon dactylon); assay: Test C preemergence; conditions: for Plant response rating (0 to 100 where 0 is no effect and 100 is complete control), Bermudagrass: Rate 500 g/ha, visual evaluation after 12 to 14 days
Outline: as §1

[13] = test system: crabgrass (Digitaria sanguinalis); assay: Test C preemergence; conditions: for Plant response rating (0 to 100), Crabgrass: Rate 500 g/ha, visual evaluation after 12 to 14 days
Outline: as §1

[14] = test system: goosegrass (Eleusine indica); assay: Test C preemergence; conditions: for Plant response rating (0 to 100), Goosegrass: Rate 500 g/ha, visual evaluation after 12 to 14 days
Outline: as §1

Nightshade [15] = assay: Test C preemergence
Sunflower = assay: Test C preemergence; conditions: Rate 500 g/ha, visual evaluation after 12 to 14 days
[16] = Preemergence, Rate 500 g/ha, scale 0 to 100, 0 no effect, 100 complete control
[17] = preemergence, Rate 125 g/ha, scale of 0 to 100 where 0 is no effect and 100 is complete control, 13 to 15 days
[18] = Rate 125 g/ha, scale 0 to 100, 0 no effect, 100 complete control
[19] = preemergence, Rate 62 g/ha, scale 0 to 100
[20] = preemergence, Rate 250 g/ha, scale 0 to 100, 0 no effect, 100 complete control
[21] = Rate 250 g/ha, scale 0 to 100, 0 no effect, 100 complete control

`CCOc1cccc(N2CCC(n3ccc(C(C)(C)C)n3)C2=O)c1` (stereo not shown) [Compound 130] was tested, and the “Plant response rating, Barnyardgrass” value [1, 16] was 100, the “Plant response rating, Barnyardgrass” value [1, 17] was 100 and the “Plant response rating (0 to 100), Nightshade” value (Nightshade [2]) was 100. For the same compound, the “Plant response rating, Velvetleaf” value [3, 18] was 60, the “Plant response rating, Velvetleaf” value [3, 19] was 60 and the “Plant response rating (0 to 100), Velvetleaf” value ([3]; preemergence) was 60. For the same compound, the “Plant response rating, Velvetleaf” value [3, 20] was 60, the “Plant response rating, Morningglory” value [4, 19] was 70 and the “Plant response rating, Morningglory” value [4, 20] was 90. The “Plant response rating, Soybean” value (soybean (Glycine max); [18]) was 30, the “Plant response rating, Soybean” value (soybean (Glycine max); [19]) was 30 and the “Plant response rating (0 to 100), Soybean” value (soybean (Glycine max); preemergence) was 60. The “Plant response rating, Soybean” value (soybean (Glycine max); [20]) was 40, the “Plant response rating, Foxtail, Giant” value [5, 18] was 100 and the “Plant response rating, Foxtail, Giant” value [5, 19] was 90. For the same compound, the “Plant response rating (0 to 100), Foxtail, Giant” value ([5]; preemergence) was 100, the “Plant response rating, Foxtail, Giant” value [5, 20] was 100 and the “Plant response rating, Corn” value (corn (Zea mays); [18]) was 80. The “Plant response rating, Corn” value (corn (Zea mays); [19]) was 40, the “Plant response rating (0 to 100), Corn” value (corn (Zea mays); preemergence) was 100 and the “Plant response rating, Corn” value (corn (Zea mays); [20]) was 90. For the same compound, the “Plant response rating, Johnsongrass” value [6, 18] was 90, the “Plant response rating, Johnsongrass” value [6, 19] was 0 and the “Plant response rating (0 to 100), Johnsongrass” value ([6]; preemergence) was 100. For the same compound, the “Plant response rating, Johnsongrass” value [6, 20] was 100, the “Plant response rating, Kochia” value (kochia (Kochia scoparia); [18]) was 100 and the “Plant response rating, Kochia” value (kochia (Kochia scoparia); [19]) was 100. The “Plant response rating (0 to 100), Kochia” value (kochia (Kochia scoparia); preemergence) was 100, the “Plant response rating, Kochia” value (kochia (Kochia scoparia); [20]) was 100 and the “Plant response rating, Lambsquarters” value [7, 18] was 100. For the same compound, the “Plant response rating, Lambsquarters” value [7, 19] was 100, the “Plant response rating (0 to 100), Lambsquarters” value ([7]; preemergence) was 100 and the “Plant response rating, Lambsquarters” value [7, 20] was 100. For the same compound, the “Plant response rating, Nutsedge” value [8, 18] was 80, the “Plant response rating, Nutsedge” value [8, 19] was 30 and the “Plant response rating (0 to 100), Nutsedge” value ([8]; preemergence) was 100. The “Plant response rating, Nutsedge” value [8, 20] was 100, the “Plant response rating, Pigweed” value [9, 18] was 100 and the “Plant response rating, Pigweed” value [9, 19] was 100. The “Plant response rating (0 to 100), Pigweed” value ([9]; preemergence) was 100, the “Plant response rating, Pigweed” value [9, 20] was 100 and the “Plant response rating, Cupgrass, Woolly” value [10, 18] was 100. The “Plant response rating, Cupgrass, Woolly” value [10, 19] was 100, the “Plant response rating (0 to 100), Cupgrass, Woolly” value ([10]; preemergence) was 100 and the “Plant response rating, Cupgrass, Woolly” value [10, 20] was 100. For the same compound, the “Plant response rating, Cocklebur” value [11, 19] was 0, the “Plant response rating (0 to 100), Cocklebur” value ([11]; preemergence) was 0 and the “Plant response rating, Cocklebur” value [11, 20] was 0. The “Plant response rating, Bermudagrass” value [12, 18] was 100, the “Plant response rating, Bermudagrass” value [12, 19] was 100 and the “Plant response rating (0 to 100 where 0 is no effect and 100 is complete control), Bermudagrass” value ([12]; preemergence) was 100. For the same compound, the “Plant response rating, Bermudagrass” value [12, 20] was 100, the “Plant response rating, Crabgrass” value [13, 18] was 100 and the “Plant response rating, Crabgrass” value [13, 19] was 100. The “Plant response rating (0 to 100), Crabgrass” value ([13]; preemergence) was 100, the “Plant response rating, Crabgrass” value [13, 20] was 100 and the “Plant response rating, Goosegrass” value [14, 18] was 100. For the same compound, the “Plant response rating, Goosegrass” value [14, 19] was 100, the “Plant response rating (0 to 100), Goosegrass” value ([14]; preemergence) was 100 and the “Plant response rating, Goosegrass” value [14, 20] was 100. For the same compound, the “Plant response rating, Nightshade” value (Nightshade [15]; Rate 62 g/ha, scale 0 to 100) was 100, the “Plant response rating, Nightshade” value (Nightshade [15]; [18]) was 100 and the “Plant response rating, Nightshade” value (Nightshade [15]; [21]) was 100. For the same compound, the “Plant response rating (0 to 100), Sunflower” value (Sunflower) was 70.

In the case of `CCC(C)c1ccn(C2CCN(c3ccc(F)c(C(F)(F)F)c3)C2=O)n1` (stereo not shown) [Compound 145], the “Plant response rating, Barnyardgrass” value [1, 16] is reported as 100, the “Plant response rating, Barnyardgrass” value [1, 17] is reported as 70 and the “Plant response rating (0 to 100), Nightshade” value (Nightshade [2]) is reported as 90. The “Plant response rating, Velvetleaf” value [3, 18] was 0, the “Plant response rating, Velvetleaf” value [3, 19] was 0 and the “Plant response rating (0 to 100), Velvetleaf” value ([3]; preemergence) was 20. The “Plant response rating, Velvetleaf” value [3, 20] was 0, the “Plant response rating, Morningglory” value [4, 18] was 100 and the “Plant response rating, Morningglory” value [4, 19] was 0. For the same compound, the “Plant response rating, Morningglory” value [4, 20] was 100, the “Plant response rating, Soybean” value (soybean (Glycine max); [18]) was 30 and the “Plant response rating, Soybean” value (soybean (Glycine max); [19]) was 20. The “Plant response rating (0 to 100), Soybean” value (soybean (Glycine max); preemergence) was 60, the “Plant response rating, Soybean” value (soybean (Glycine max); [20]) was 30 and the “Plant response rating, Foxtail, Giant” value [5, 18] was 100. The “Plant response rating, Foxtail, Giant” value [5, 19] was 100, the “Plant response rating (0 to 100), Foxtail, Giant” value ([5]; preemergence) was 100 and the “Plant response rating, Foxtail, Giant” value [5, 20] was 100. The “Plant response rating, Corn” value (corn (Zea mays); [18]) was 20, the “Plant response rating, Corn” value (corn (Zea mays); [19]) was 0 and the “Plant response rating (0 to 100), Corn” value (corn (Zea mays); preemergence) was 40. The “Plant response rating, Corn” value (corn (Zea mays); [20]) was 40, the “Plant response rating, Johnsongrass” value [6, 18] was 10 and the “Plant response rating, Johnsongrass” value [6, 19] was 0. For the same compound, the “Plant response rating (0 to 100), Johnsongrass” value ([6]; preemergence) was 90, the “Plant response rating, Johnsongrass” value [6, 20] was 20 and the “Plant response rating, Kochia” value (kochia (Kochia scoparia); [18]) was 100. For the same compound, the “Plant response rating, Kochia” value (kochia (Kochia scoparia); [19]) was 100, the “Plant response rating (0 to 100), Kochia” value (kochia (Kochia scoparia); preemergence) was 100 and the “Plant response rating, Kochia” value (kochia (Kochia scoparia); [20]) was 100. For the same compound, the “Plant response rating, Lambsquarters” value [7, 18] was 100, the “Plant response rating, Lambsquarters” value [7, 19] was 100 and the “Plant response rating (0 to 100), Lambsquarters” value ([7]; preemergence) was 100. The “Plant response rating, Lambsquarters” value [7, 20] was 100, the “Plant response rating, Nutsedge” value [8, 18] was 0 and the “Plant response rating, Nutsedge” value [8, 19] was 0. For the same compound, the “Plant response rating (0 to 100), Nutsedge” value ([8]; preemergence) was 0, the “Plant response rating, Nutsedge” value [8, 20] was 0 and the “Plant response rating, Pigweed” value [9, 18] was 100. For the same compound, the “Plant response rating, Pigweed” value [9, 19] was 100, the “Plant response rating (0 to 100), Pigweed” value ([9]; preemergence) was 100 and the “Plant response rating, Pigweed” value [9, 20] was 100. The “Plant response rating, Cupgrass, Woolly” value [10, 18] was 100, the “Plant response rating, Cupgrass, Woolly” value [10, 19] was 20 and the “Plant response rating (0 to 100), Cupgrass, Woolly” value ([10]; preemergence) was 100. For the same compound, the “Plant response rating, Cupgrass, Woolly” value [10, 20] was 100, the “Plant response rating, Cocklebur” value [11, 18] was 20 and the “Plant response rating, Cocklebur” value [11, 19] was 0. For the same compound, the “Plant response rating (0 to 100), Cocklebur” value ([11]; preemergence) was 60, the “Plant response rating, Cocklebur” value [11, 20] was 50 and the “Plant response rating, Bermudagrass” value [12, 18] was 100. For the same compound, the “Plant response rating, Bermudagrass” value [12, 19] was 60, the “Plant response rating (0 to 100 where 0 is no effect and 100 is complete control), Bermudagrass” value ([12]; preemergence) was 100 and the “Plant response rating, Bermudagrass” value [12, 20] was 100. For the same compound, the “Plant response rating, Crabgrass” value [13, 18] was 100, the “Plant response rating, Crabgrass” value [13, 19] was 100 and the “Plant response rating (0 to 100), Crabgrass” value ([13]; preemergence) was 100. The “Plant response rating, Crabgrass” value [13, 20] was 100, the “Plant response rating, Goosegrass” value [14, 18] was 100 and the “Plant response rating, Goosegrass” value [14, 19] was 90. For the same compound, the “Plant response rating (0 to 100), Goosegrass” value ([14]; preemergence) was 100, the “Plant response rating, Goosegrass” value [14, 20] was 100 and the “Plant response rating, Nightshade” value (Nightshade [15]; Rate 62 g/ha, scale 0 to 100) was 0. The “Plant response rating, Nightshade” value (Nightshade [15]; [18]) was 10, the “Plant response rating, Nightshade” value (Nightshade [15]; [21]) was 20 and the “Plant response rating (0 to 100), Sunflower” value (Sunflower) was 50.
